Data: ChEMBL document CHEMBL5729561, “Compounds and uses thereof” (2023)

Assay: On day 0 cells were seeded in 30 μL media into each well of 384-well cell culture plates. The seeding density was 8000 cells/well. On day 1, cells were treated with 30 nL DMSO or 30 nL of 3-fold serially DMSO-diluted compounds (10 points in duplicates with 1 μM as final top dose). Subsequently plates were incubated for 6 hours in a standard tissue culture incubator and equilibrated at room temperature for 15 minutes. Nanoluciferase activity was measured by adding 15 μL of freshly prepared Nano-Glo Luciferase Assay Reagent (Promega N1130), shaking the plates for 10 minutes and reading the bioluminescence using an EnVision reader.
Type: cell-based

COc1cc(-c2cn(C)c(=O)c3cnccc23)cc(OC)c1CN1CCC2(C[C@@H]2NC(=O)CCOCCOc2ccc3c(c2)C(=O)N(C2CCC(=O)NC2=O)C3=O)C1 (stereo partly specified)
IC50: in the range around 55 nM

COc1cc(-c2cn(C)c(=O)c3cnccc23)cc(OC)c1CN1CCN(C(=O)C2CC2CNC(=O)COc2ccc3c(c2)C(=O)N(C2CCC(=O)NC2=O)C3=O)CC1 (stereo unspecified)
IC50: in the range around 550 nM

COc1cc(-c2cn(C)c(=O)c3cnccc23)cc(OC)c1CN1CC2(CCN(C(=O)CCOCCOc3ccc4c(c3)C(=O)N(C3CCC(=O)NC3=O)C4=O)CC2)C1 (stereo unspecified)
IC50: in the range around 55 nM

COc1cc(-c2cn(C)c(=O)c3cnccc23)cc(OC)c1CN1CCC(OCc2cn(CCOCCOc3ccc4c(c3)C(=O)N(C3CCC(=O)NC3=O)C4=O)nn2)C1 (stereo unspecified)
IC50: in the range around 55 nM

COc1cc(-c2cn(C)c(=O)c3cnccc23)cc(OC)c1CN(C)C1CCC12CCN(C(=O)CCOCCOc1cccc3c1C(=O)N(C1CCC(=O)NC1=O)C3=O)CC2 (stereo unspecified)
IC50: in the range around 55 nM

COc1cc(-c2cn(C)c(=O)c3cnccc23)cc(OC)c1CN1CCC2CCN(C(=O)CCOCCOc3cccc4c3C(=O)N(C3CCC(=O)NC3=O)C4=O)CC21 (stereo unspecified)
IC50: in the range around 55 nM

COc1cc(-c2cn(C)c(=O)c3cnccc23)cc(OC)c1CN1CC2(CC(NC(=O)CCOCCOc3cccc4c3C(=O)N(C3CCC(=O)NC3=O)C4=O)C2)C1 (stereo unspecified)
IC50: in the range around 55 nM

COc1cc(-c2cn(C)c(=O)c3cnccc23)cc(OC)c1CN1CC(CCNC(=O)CCOCCOc2ccc3c(c2)C(=O)N(C2CCC(=O)NC2=O)C3=O)C1 (stereo unspecified)
IC50: in the range around 550 nM

COc1cc(-c2cn(C)c(=O)c3cnccc23)cc(OC)c1CN(C)C(=O)CCCCN1CCOC2(CCN(c3ccc4c(c3)C(=O)N(C3CCC(=O)NC3=O)C4=O)CC2)C1 (stereo unspecified)
IC50: < 10 nM

COc1cc(-c2cn(C)c(=O)c3cnccc23)cc(OC)c1CN1CCC12CN(C(=O)CCOCCOc1cccc3c1C(=O)N(C1CCC(=O)NC1=O)C3=O)C2 (stereo unspecified)
IC50: in the range around 550 nM

COc1cc(-c2cn(C)c(=O)c3cnccc23)cc(OC)c1CN1CCC(OCc2cn(CCOCc3ccc4c(c3)C(=O)N(C3CCC(=O)NC3=O)C4=O)nn2)CC1 (stereo unspecified)
IC50: in the range around 55 nM

COc1cc(-c2cn(C)c(=O)c3cnccc23)cc(OC)c1CN1CCC(OCc2cn(CCCCOc3ccc4c(c3)C(=O)N(C3CCC(=O)NC3=O)C4=O)nn2)C1 (stereo unspecified)
IC50: in the range around 55 nM

COc1cc(-c2cn(C)c(=O)c3cnccc23)cc(OC)c1CN1CCC2(C[C@H]2NC(=O)CCOCCOc2ccc3c(c2)C(=O)N(C2CCC(=O)NC2=O)C3=O)C1 (stereo partly specified)
IC50: in the range around 550 nM

COc1cc(-c2cn(C)c(=O)c3cnccc23)cc(OC)c1CN1CC(CC(=O)NCCCCCCCCNc2cccc3c2C(=O)N(C2CCC(=O)NC2=O)C3=O)C1 (stereo unspecified)
IC50: < 10 nM

COc1cc(-c2cn(C)c(=O)c3cnccc23)cc(OC)c1CN1CCCC(OCc2cn(CCOc3ccc4c(c3)C(=O)N(C3CCC(=O)NC3=O)C4=O)nn2)C1 (stereo unspecified)
IC50: in the range around 55 nM

COc1cc(-c2cn(C)c(=O)c3cnccc23)cc(OC)c1CN1CCC2(CC1)CN(C(=O)CCOCCOc1ccc3c(c1)C(=O)N(C1CCC(=O)NC1=O)C3=O)C2 (stereo unspecified)
IC50: in the range around 55 nM

COc1cc(-c2cn(C)c(=O)c3cnccc23)cc(OC)c1CN1CC[C@@H]1C(=O)NCCCCCCCCNc1cccc2c1C(=O)N(C1CCC(=O)NC1=O)C2=O (stereo partly specified)
IC50: < 10 nM

COc1cc(-c2cn(C)c(=O)c3cnccc23)cc(OC)c1CN1CC(S(=O)(=O)NCCCCCCNc2ccc3c(c2)C(=O)N(C2CCC(=O)NC2=O)C3=O)C1 (stereo unspecified)
IC50: < 10 nM

COc1cc(-c2cn(C)c(=O)c3cnccc23)cc(OC)c1CN(C)CCc1cn(CCCCOc2ccc3c(c2)C(=O)N(C2CCC(=O)NC2=O)C3=O)nn1 (stereo unspecified)
IC50: in the range around 55 nM

COc1cc(-c2cn(C)c(=O)c3cnccc23)cc(OC)c1CN1CCC(COC2CCN(C(=O)CCOCCOc3ccc4c(c3)C(=O)N(C3CCC(=O)NC3=O)C4=O)C2)CC1 (stereo unspecified)
IC50: < 10 nM

COc1cc(-c2cn(C)c(=O)c3cnccc23)cc(OC)c1CN1CC2(CCN(C(=O)CCOCCOc3ccc4c(c3)C(=O)N(C3CCC(=O)NC3=O)C4=O)C2)C1 (stereo unspecified)
IC50: < 10 nM
